Measurements as given in patent US20150105252A1, “SUBSTITUTED PYRAZOLES AS HERBICIDES” (E I DU PONT DE NEMOURS AND COMPANY, priority 2013, published 2015).

Assays:
barnyardgrass [1] = assay: Test A preemergence; assay type: in vivo, Echinochloa crus-galli; details: preemergence; for Barnyardgrass plant response rating (0 to 100 scale, 0 is no effect, 100 is complete control): 125 g ai/ha, visual injury approx. 10 days after treatment; for Barnyardgrass plant response rating: 500 g ai/ha, visual injury after approx. 10 days, 0 to 100 scale (0 no effect, 100 complete control)
Method in brief: (§1)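 Greenhouse test in loam soil/sand blend; compounds formulated in non-phytotoxic solvent with surfactant, applied as preemergence directed soil spray or postemergence to plants 2–10 cm tall at one- to two-leaf stage. Injury rated visually versus untreated controls after approximately 10 days on a 0 (no effect) to 100 (complete control) scale.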

pigweed [2] = assay: Test A preemergence; assay type: in vivo, Amaranthus retroflexus; details: preemergence; for Pigweed plant response rating (0 to 100 scale): 125 g ai/ha, visual injury approx. 10 days after treatment; for Pigweed plant response rating: 500 g ai/ha, visual injury after approx. 10 days, 0 to 100 scale (0 no effect, 100 complete control)
Method in brief: as §1

barnyardgrass [3] = assay: Test A postemergence; assay type: in vivo, Echinochloa crus-galli
Method in brief: as §1

foxtail, giant = assay: Test A postemergence; assay type: in vivo, Setaria faberii
Method in brief: as §1

velvetleaf = assay: Test A postemergence; assay type: in vivo, Abutilon theophrasti; details: Postemergence
Method in brief: as §1

corn = assay: Test A postemergence; assay type: in vivo, Zea mays
Method in brief: as §1

rice = assay: Test B flood; assay type: in vivo, Oryza sativa; details: 250 g ai/ha, visual rating on 0 to 100 scale (0 no effect, 100 complete control), 13 to 15 days
Method in brief: (§2)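 Plants were grown to the 2-leaf stage and pots flooded to 3 cm above soil. Compounds were applied directly into the paddy water, with depth kept for the test. After 13–15 days in greenhouse, response was rated visually against controls on a 0 (no effect) to 100 (complete control) scale.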

barnyardgrass [4] = assay: Test B flood; assay type: in vivo, Echinochloa crus-galli; details: 250 g ai/ha, visual rating on 0 to 100 scale (0 no effect, 100 complete control), 13 to 15 days
Method in brief: as §2

blackgrass = assay: Test C preemergence; assay type: in vivo, Alopecurus myosuroides; details: preemergence; for Plant response rating, Blackgrass: 125 g ai/ha, scale 0 to 100, 0 = no effect, 100 = complete control
Method in brief: (§3)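 Greenhouse pot test: preemergence application onto freshly seeded loam/sand mix, postemergence application onto seedlings (1–4 leaves, 2–18 cm) in peat-vermiculite substrate. Responses scored visually 13 to 15 days later relative to controls, where 0 means no effect and 100 means complete control; a dash indicates no result.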

ryegrass, Italian = assay: Test C preemergence; assay type: in vivo, Lolium multiflorum; details: preemergence; for Plant response rating, Ryegrass, Italian: 125 g ai/ha, scale 0 to 100, 0 = no effect, 100 = complete control
Method in brief: as §3

crabgrass, large = assay: Test C preemergence; assay type: in vivo, Digitaria sanguinalis; details: preemergence; for Plant response rating, Crabgrass, Large: 125 g ai/ha, scale 0 to 100, 0 = no effect, 100 = complete control
Method in brief: as §3

johnsongrass = assay: Test C preemergence; assay type: in vivo, Sorghum halepense; details: preemergence; for Plant response rating, Johnsongrass: 125 g ai/ha, scale 0 to 100, 0 = no effect, 100 = complete control
Method in brief: as §3

morningglory = assay: Test C preemergence; assay type: in vivo, Ipomoea coccinea; details: preemergence; for Plant response rating, Morningglory: 125 g ai/ha, scale 0 to 100, 0 = no effect, 100 = complete control
Method in brief: as §3

pigweed [5] = assay: Test C preemergence; assay type: in vivo, Amaranthus retroflexus; details: preemergence; for Plant response rating, Pigweed: 125 g ai/ha, scale 0 to 100, 0 = no effect, 100 = complete control
Method in brief: as §3

[6] = Postemergence, 500 g ai/ha, 0 to 100 scale (0 no effect, 100 complete control)
[7] = postemergence, 125 g ai/ha, about 10 days, visual rating on 0 to 100 scale (0 no effect, 100 complete control)
[8] = 125 g ai/ha, 0 to 100 scale, 0 no effect, 100 complete control
[9] = 500 g ai/ha, 0 to 100 scale (0 no effect, 100 complete control)
[10] = 31 g ai/ha, visual rating, scale 0 to 100 (0 no effect, 100 complete control), 13 to 15 days
[11] = 62 g ai/ha, scale 0 to 100 (0 no effect, 100 complete control), 13 to 15 days
[12] = 250 g ai/ha, scale 0 to 100, 0 is no effect, 100 is complete control

CCOc1cc(C(=O)NC(C)C)nn1Cc1ccnc(C(F)(F)F)c1 [Compound 188]
70: Ryegrass, Italian plant response rating (ryegrass, Italian; [10])
98: Johnsongrass plant response rating (johnsongrass; [11]) | Morningglory plant response rating (morningglory; [10]) | Morningglory plant response rating (morningglory; [11]) | Plant response rating, Morningglory (morningglory; 13 to 15 days)
100: Barnyardgrass plant response rating (0 to 100 scale, 0 is no effect, 100 is complete control) (barnyardgrass [1]) | Barnyardgrass plant response rating (barnyardgrass [1]) | Pigweed plant response rating (0 to 100 scale) (pigweed [2]) | Pigweed plant response rating (pigweed [2]) | Velvetleaf plant response rating (velvetleaf; [8]) | Velvetleaf plant response rating (velvetleaf; [9]) | Corn plant response rating (corn; [6]) | Crabgrass, Large plant response rating (crabgrass, large; [10]) | Crabgrass, Large plant response rating (crabgrass, large; [11]) | Plant response rating, Crabgrass, Large (crabgrass, large; 13 to 15 days) | Crabgrass, Large plant response rating (crabgrass, large; [12]) | Plant response rating, Johnsongrass (johnsongrass; 13 to 15 days) | Johnsongrass plant response rating (johnsongrass; [12]) | Morningglory plant response rating (morningglory; [12]) | Pigweed plant response rating (pigweed [5]; [10]) | Pigweed plant response rating (pigweed [5]; [11]) | Plant response rating, Pigweed (pigweed [5]; 13 to 15 days) | Pigweed plant response rating (pigweed [5]; [12])
75: Plant response rating, Barnyardgrass (barnyardgrass [4])
60: Plant response rating, Rice (rice)
90: Barnyardgrass plant response rating (barnyardgrass [3]; [6]) | Barnyardgrass plant response rating (barnyardgrass [3]; [7]) | Foxtail, Giant plant response rating (foxtail, giant; [6]) | Foxtail, Giant plant response rating (foxtail, giant; [7]) | Corn plant response rating (corn; [7]) | Blackgrass plant response rating (blackgrass; [10]) | Blackgrass plant response rating (blackgrass; [11]) | Plant response rating, Blackgrass (blackgrass; 13 to 15 days) | Blackgrass plant response rating (blackgrass; [12]) | Ryegrass, Italian plant response rating (ryegrass, Italian; [11]) | Plant response rating, Ryegrass, Italian (ryegrass, Italian; 13 to 15 days) | Ryegrass, Italian plant response rating (ryegrass, Italian; [12])
80: Johnsongrass plant response rating (johnsongrass; [10])

CCOc1cc(C(=O)NC2CC2)nn1Cc1ccnc(C(F)(F)F)c1 [Compound 189]
80: Corn plant response rating (corn; [7])
0: Pigweed plant response rating (0 to 100 scale) (pigweed [2]) | Pigweed plant response rating (pigweed [2])
90: Barnyardgrass plant response rating (0 to 100 scale, 0 is no effect, 100 is complete control) (barnyardgrass [1]) | Barnyardgrass plant response rating (barnyardgrass [3]; [6]) | Barnyardgrass plant response rating (barnyardgrass [3]; [7]) | Foxtail, Giant plant response rating (foxtail, giant; [6]) | Foxtail, Giant plant response rating (foxtail, giant; [7]) | Blackgrass plant response rating (blackgrass; [10]) | Blackgrass plant response rating (blackgrass; [11]) | Plant response rating, Blackgrass (blackgrass; 13 to 15 days) | Blackgrass plant response rating (blackgrass; [12]) | Ryegrass, Italian plant response rating (ryegrass, Italian; [11]) | Plant response rating, Ryegrass, Italian (ryegrass, Italian; 13 to 15 days) | Ryegrass, Italian plant response rating (ryegrass, Italian; [12])
65: Johnsongrass plant response rating (johnsongrass; [10])
100: Barnyardgrass plant response rating (barnyardgrass [1]) | Velvetleaf plant response rating (velvetleaf; [8]) | Velvetleaf plant response rating (velvetleaf; [9]) | Corn plant response rating (corn; [6]) | Crabgrass, Large plant response rating (crabgrass, large; [10]) | Crabgrass, Large plant response rating (crabgrass, large; [11]) | Plant response rating, Crabgrass, Large (crabgrass, large; 13 to 15 days) | Crabgrass, Large plant response rating (crabgrass, large; [12]) | Plant response rating, Johnsongrass (johnsongrass; 13 to 15 days) | Johnsongrass plant response rating (johnsongrass; [12]) | Morningglory plant response rating (morningglory; [12]) | Pigweed plant response rating (pigweed [5]; [10]) | Pigweed plant response rating (pigweed [5]; [11]) | Plant response rating, Pigweed (pigweed [5]; 13 to 15 days) | Pigweed plant response rating (pigweed [5]; [12])
95: Morningglory plant response rating (morningglory; [10])
60: Plant response rating, Barnyardgrass (barnyardgrass [4])
40: Ryegrass, Italian plant response rating (ryegrass, Italian; [10])
45: Plant response rating, Rice (rice)
98: Johnsongrass plant response rating (johnsongrass; [11]) | Morningglory plant response rating (morningglory; [11]) | Plant response rating, Morningglory (morningglory; 13 to 15 days)

CCONC(=O)c1cc(OCC)n(Cc2ccnc(C(F)(F)F)c2)n1 [Compound 195]
95: Crabgrass, Large plant response rating (crabgrass, large; [11])
10: Plant response rating, Rice (rice) | Plant response rating, Barnyardgrass (barnyardgrass [4]) | Ryegrass, Italian plant response rating (ryegrass, Italian; [10])
30: Johnsongrass plant response rating (johnsongrass; [11])
100: Barnyardgrass plant response rating (barnyardgrass [1]) | Pigweed plant response rating (0 to 100 scale) (pigweed [2]) | Pigweed plant response rating (pigweed [2]) | Foxtail, Giant plant response rating (foxtail, giant; [6]) | Velvetleaf plant response rating (velvetleaf; [9]) | Crabgrass, Large plant response rating (crabgrass, large; [10]) | Plant response rating, Crabgrass, Large (crabgrass, large; 13 to 15 days) | Crabgrass, Large plant response rating (crabgrass, large; [12]) | Morningglory plant response rating (morningglory; [11]) | Plant response rating, Morningglory (morningglory; 13 to 15 days) | Morningglory plant response rating (morningglory; [12]) | Plant response rating, Pigweed (pigweed [5]; 13 to 15 days) | Pigweed plant response rating (pigweed [5]; [12])
80: Foxtail, Giant plant response rating (foxtail, giant; [7]) | Corn plant response rating (corn; [7])
90: Barnyardgrass plant response rating (0 to 100 scale, 0 is no effect, 100 is complete control) (barnyardgrass [1]) | Barnyardgrass plant response rating (barnyardgrass [3]; [6]) | Corn plant response rating (corn; [6]) | Blackgrass plant response rating (blackgrass; [11]) | Plant response rating, Blackgrass (blackgrass; 13 to 15 days) | Blackgrass plant response rating (blackgrass; [12]) | Plant response rating, Ryegrass, Italian (ryegrass, Italian; 13 to 15 days) | Ryegrass, Italian plant response rating (ryegrass, Italian; [12])
98: Pigweed plant response rating (pigweed [5]; [11])
70: Barnyardgrass plant response rating (barnyardgrass [3]; [7]) | Velvetleaf plant response rating (velvetleaf; [8])
60: Ryegrass, Italian plant response rating (ryegrass, Italian; [11])
85: Johnsongrass plant response rating (johnsongrass; [12])
35: Morningglory plant response rating (morningglory; [10])
5: Blackgrass plant response rating (blackgrass; [10]) | Johnsongrass plant response rating (johnsongrass; [10])
75: Plant response rating, Johnsongrass (johnsongrass; 13 to 15 days)
